Test results published in US20230117324A1, “OXAZINE MONOACYLGLYCEROL LIPASE (MAGL) INHIBITORS” (Hoffmann-La Roche Inc., priority 2018, published 2023).

biological target: T1, MAGL (Homo sapiens, UniProt Q99685); experiment: MAGL inhibition, 2-AG assay (hydrolysis of 2-arachidonoylglycerol, arachidonic acid by mass spectrometry); assay type: biochemical; settings: 2-AG assay (footnote [b])
T1 sequence (Q99685 1-303): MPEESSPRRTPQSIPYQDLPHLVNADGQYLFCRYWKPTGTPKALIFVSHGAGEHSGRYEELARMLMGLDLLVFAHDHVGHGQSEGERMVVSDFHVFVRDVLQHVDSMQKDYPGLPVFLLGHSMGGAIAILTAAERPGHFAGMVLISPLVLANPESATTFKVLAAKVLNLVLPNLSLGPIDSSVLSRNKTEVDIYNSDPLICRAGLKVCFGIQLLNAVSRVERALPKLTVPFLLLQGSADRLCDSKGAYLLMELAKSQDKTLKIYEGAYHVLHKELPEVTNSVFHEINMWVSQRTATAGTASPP
Method in brief: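 Human MAGL […] was preincubated 15 min at RT with compound ([…], 3-fold steps) in 50 mM Tris, 1 mM EDTA, 0.01% Tween. 2-AG (8 μM) was then added for 30 min at RT. Arachidonic acid was quantified by RapidFire SPE–triple quadrupole MS in negative ESI as its ratio to a d8-arachidonic acid standard.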

SMILES	IC50 [nM]
Cc1cc(C2CN(C(=O)N3CC[C@@H]4OCC(=O)N[C@@H]4C3)C2)ccc1OC(F)(F)F [Example 203, (4aR,8aS)-6-(3-(3-Methyl-4-(trifluoromethoxy)phenyl)azetidine-1-carbonyl)hexahydro-2H-pyrido[4,3-b][1,4]oxazin-3(4H)-one]	0.8
O=C1CO[C@H]2CCN(C(=O)N3CC(c4cc(F)c(OC(F)(F)F)c(F)c4)C3)C[C@H]2N1 [Example 204, (4aR,8aS)-6-(3-(3,5-Difluoro-4-(trifluoromethoxy)phenyl)azetidine-1-carbonyl)hexahydro-2H-pyrido[4,3-b][1,4]oxazin-3(4H)-one]	10
O=C1CO[C@H]2CCN(C(=O)N3CC(c4ccc(OC(F)(F)F)cc4Cl)C3)C[C@H]2N1 [Example 205, (4aR,8aS)-6-(3-(2-Chloro-4-(trifluoromethoxy)phenyl)azetidine-1-carbonyl)hexahydro-2H-pyrido[4,3-b][1,4]oxazin-3(4H)-one]	18
O=C1CO[C@H]2CCN(C(=O)N3CC(c4ccc(C56CC(C5)C6)cc4)C3)C[C@H]2N1 [Example 206, (4aR,8aS)-6-(3-(4-(Bicyclo[1.1.1]pentan-1-yl)phenyl)azetidine-1-carbonyl)hexahydro-2H-pyrido[4,3-b][1,4]oxazin-3(4H)-one]	5
O=C1CO[C@H]2CCN(C(=O)N3CC(c4ccc(N5CCCC5C(F)(F)F)cn4)C3)C[C@H]2N1 (stereo partly drawn) [Example 207, (4aR,8aS)-6-(3-(5-(2-(Trifluoromethyl)pyrrolidin-1-yl)pyridin-2-yl)azetidine-1-carbonyl)hexahydro-2H-pyrido[4,3-b][1,4]oxazin-3(4H)-one]	6
O=C1CO[C@H]2CCN(C(=O)N3CCC(c4c[nH]c5ccc(F)cc45)C3)C[C@H]2N1 (stereo partly drawn) [Example 208, (4aR,8aS)-6-(3-(5-Fluoro-1H-indol-3-yl)pyrrolidine-1-carbonyl)hexahydro-2H-pyrido[4,3-b][1,4]oxazin-3(4H)-one]	48
O=C1CO[C@H]2CCN(C(=O)N3CCC(c4cn(Cc5ccccc5)c5ccc(Cl)cc45)C3)C[C@H]2N1 (stereo partly drawn) [Example 209, (4aR,8aS)-6-(3-(1-Benzyl-5-chloro-1H-indol-3-yl)pyrrolidine-1-carbonyl)hexahydro-2H-pyrido[4,3-b][1,4]oxazin-3(4H)-one]	0.8
O=C1CO[C@H]2CCN(C(=O)N3CC(c4ccc(C(F)(F)F)cc4F)C3)C[C@H]2N1 [Example 210, (4aR,8aS)-6-(3-(2-Fluoro-4-(trifluoromethyl)phenyl)azetidine-1-carbonyl)hexahydro-2H-pyrido[4,3-b][1,4]oxazin-3(4H)-one]	112
O=C1CO[C@H]2CCN(C(=O)N3CC(c4ccc(OC(F)(F)F)c(Cl)c4)C3)C[C@H]2N1 [Example 211, (4aR,8aS)-6-(3-(3-Chloro-4-(trifluoromethoxy)phenyl)azetidine-1-carbonyl)hexahydro-2H-pyrido[4,3-b][1,4]oxazin-3(4H)-one]	11
O=C1CO[C@H]2CCN(C(=O)N3CC(c4ccc(N5CC(OCC6CC6)C5)cc4)C3)C[C@H]2N1 [Example 212, (4aR,8aS)-6-[3-[4-[3-(Cyclopropylmethoxy)azetidin-1-yl]phenyl]azetidine-1-carbonyl]-4,4a,5,7,8,8a-hexahydropyrido[4,3-b][1,4]oxazin-3-one]	3
N#Cc1cc(C2CN(C(=O)N3CC[C@@H]4OCC(=O)N[C@@H]4C3)C2)ccc1OC(F)(F)F [Example 213, 5-(1-((4aR,8aS)-3-Oxooctahydro-2H-pyrido[4,3-b][1,4]oxazine-6-carbonyl)azetidin-3-yl)-2-(trifluoromethoxy)benzonitrile]	114
O=C1CO[C@H]2CCN(C(=O)N3CC(c4ccc(C5(CO)CC5)cc4)C3)C[C@H]2N1 [Example 214, (4aR,8aS)-6-(3-(4-(1-(Hydroxymethyl)cyclopropyl)phenyl)azetidine-1-carbonyl)hexahydro-2H-pyrido[4,3-b][1,4]oxazin-3(4H)-one]	62
